EP0414533A1, “Use of iodopropargyl esters of alpha-amino acid derivatives as antimicrobial agents” (ROHM AND HAAS COMPANY, priority 1989, dated 1991)
In brackets after ≈: the same amount, converted by molar mass. Structures can show the parent of a compound that is named as a salt. Where two headings read alike, the source gives them in different places.

What was measured:
Botrytis cinerea (BOC) = assay: In-vitro plant fungicide test; assay type: cell-based; conditions: Botrytis cinerea, 25 ppm; Table IVa; *=Phytotoxic; read-out: % Control at 25 ppm BOC
[1] = tested on: Pseudomonas aerugenosa (PSAE); assay: Minimum inhibitory concentration (MIC), broth two-fold serial dilution test; conditions: Pseudomonas, read-out: MIC (G-) PSAE, M9G (minimal salts media with glucose)
From the text: When the test is ready to be done, each vessel in the dilution series, except the first vessel, contains an equal volume of compound free broth. The first vessel contains twice the volume of broth with the starting concentration of test compound. One half of the broth from the first vessel is transferred to the second vessel. After being mixed, one half the resulting volume is removed from the second vessel and transferred to the third vessel. The entire cycle is repeated sufficiently to give a series of concentrations amounting to 500, 250, 125, 63, 31, 16, 8, and 4 ppm (or 100, 50, 25, 12.5, 6.2, 3.1, 1.6, and 0.8), respectively.
Each vessel is then inoculated with a cell suspension of the appropriate test organism. Bacteria are grown in broth, fungi on agar slants for a time and at a temperature appropriate to the species being tested, and algae are a mixture of green algae and blue-green bacteria grown in a nutrient media. At the end of the growth period, in the case of bacteria, the broth is vortexed to disperse the cells.
The vessels are then incubated at the appropriate temperature. After the incubation, the vessels are examined for growth/no growth.

THREE FUNGI = assay: MIC test against three fungi in Mycophile Broth, pH 5.0, read after 8 days (Table VII); assay type: cell-based; conditions: 192 h
[2] = tested on: Staphylococcus aureus (SAUR); assay: Minimum inhibitory concentration (MIC), broth two-fold serial dilution test; conditions: Staphylococcus aureus, read-out: MIC (G+) SAUR, M9G (minimal salts media with glucose)
Piricularia oryzae (PIR) = assay: microbe, parasite or virus in culture; assay type: cell-based; conditions: read-out: % Control at 25 ppm PIR
Escherichia coli (ECOL) = assay: Minimum inhibitory concentration (MIC), broth two-fold serial dilution test; conditions: Escherichia coli, read-out: MIC (G-) ECOL, M9G (minimal salts media with glucose)
Aspergillus niger (ANIG) = assay: as above; assay type: cell-based; conditions: Aspergillus niger
[3] = tested on: Phytophthora capsici (PHY); assay: In-vitro plant fungicide test; assay type: cell-based; conditions: Phytophthora capsici; 25 ppm; Table IVa; read-out: % Control at 25 ppm PHY
[4] = tested on: Pseudomonas fluorescens (PSFL); assay: Minimum inhibitory concentration (MIC), broth two-fold serial dilution test; conditions: Pseudomonas fluorescens, read-out: MIC (G-) PSFL, M9G (minimal salts media with glucose)
Septoria nodorum (SEP) = assay: In-vitro plant fungicide test; assay type: cell-based; conditions: Parastagonospora nodorum, 25 ppm; Table IVa; read-out: % Control at 25 ppm SEP
Fusarium roseum (FUS) = assay: In-vitro plant fungicide test; assay type: cell-based; conditions: Fusarium sambucinum, read-out: % Control at 25 ppm FUS, 25 ppm; Table IVa; *=Phytotoxic
[5] = tested on: Cochliobolus sativus (HEL); assay: In-vitro plant fungicide test; assay type: cell-based; conditions: Bipolaris sorokiniana, 25 ppm; Table IVa; *=Phytotoxic; read-out: % Control at 25 ppm HEL
Pythium ultimum (PYU) = assay: In-vitro plant fungicide test; assay type: cell-based; conditions: Globisporangium ultimum; 25 ppm; Table IVa; read-out: % Control at 25 ppm PYU
[6] = tested on: Xanthomonas campestris (XAN); assay: In-vitro plant fungicide test; assay type: cell-based; conditions: Xanthomonas campestris; 25 ppm; Table IVa; read-out: % Control at 25 ppm XAN
Rhizoctonia solani (RHI) = assay: In-vitro plant fungicide test; assay type: cell-based; conditions: Rhizoctonia solani; 25 ppm; Table IVa; read-out: % Control at 25 ppm RHI
[7] = tested on: Aureobasidium pullulans (APUL); assay: Minimum inhibitory concentration (MIC), broth two-fold serial dilution test; assay type: cell-based; conditions: Aureobasidium pullulans
[8] = Table IIIc, iodopropargyl esters of peptides
[9] = Aspergillus niger, serial dilutions from 50 ppm, read after 8 days of incubation, read-out: MIC ANIG
[10] = Aureobasidium pullulans, serial dilutions from 50 ppm, read after 8 days of incubation, read-out: MIC APUL
[11] = Gloeophyllum trabeum, serial dilutions from 50 ppm, read after 8 days of incubation, read-out: MIC GTRA
[12] = M9G (minimal salts media with glucose), Table IIIc, iodopropargyl esters of peptides, read-out: MIC (F) ANIG
[13] = M9G (minimal salts media with glucose), Table IIIc, iodopropargyl esters of peptides, read-out: MIC (F) APUL
[14] = M9G (minimal salts media with glucose), Table IIIa, read-out: MIC (F) ANIG
[15] = M9G (minimal salts media with glucose), Table IIIa, read-out: MIC (F) APUL
[16] = Aspergillus niger, pH 5, read-out: MIC ANIG, Aspergillus niger, serial dilutions from 50 ppm, read after 8 days of incubation
[17] = Aureobasidium pullulans, pH 5, read-out: MIC APUL, Aureobasidium pullulans, serial dilutions from 50 ppm, read after 8 days of incubation
[18] = Gloeophyllum trabeum, pH 5, read-out: MIC GTRA, Gloeophyllum trabeum, serial dilutions from 50 ppm, read after 8 days of incubation
[19] = read-out: MIC (F) ANIG, M9G (minimal salts media with glucose), Table IIIa
[20] = read-out: MIC (F) APUL, M9G (minimal salts media with glucose), Table IIIa
[21] = read-out: MIC (F) ANIG, M9G (minimal salts media with glucose), Table IIIc, iodopropargyl esters of peptides
[22] = read-out: MIC (F) APUL, M9G (minimal salts media with glucose), Table IIIc, iodopropargyl esters of peptides

SMILES	inhibition of growth at 25 ppm (Botrytis cinerea (BOC))	MIC [1, 8]	MIC (THREE FUNGI; [9])	MIC (THREE FUNGI; [10])	MIC (THREE FUNGI; [11])	MIC [2, 8]	inhibition of growth at 25 ppm (Piricularia oryzae (PIR))	MIC (Escherichia coli (ECOL); [8])	inhibition of growth at 25 ppm [3]	MIC [4, 8]	inhibition of growth at 25 ppm (Septoria nodorum (SEP))	inhibition of growth at 25 ppm (Fusarium roseum (FUS))	inhibition of growth at 25 ppm [5]	inhibition of growth at 25 ppm (Pythium ultimum (PYU))	inhibition of growth at 25 ppm [6]	inhibition of growth at 25 ppm (Rhizoctonia solani (RHI))	MIC ([1]; Table IIIa)	MIC ([2]; Table IIIa)	MIC (Escherichia coli (ECOL); Table IIIa)	MIC ([4]; Table IIIa)	also measured
C[C@H](NC(=O)OC(C)(C)C)C(=O)N[C@@H](COCc1ccccc1)C(=O)OCC#CI [Compound 14, N-t-butoxycarbonyl-L-alanyl-O-benzyl-L-serine iodopropargyl ester]	0%	50 µg/mL	50 µg/mL (≈ 94.3 µM)	> 50 µg/mL	12.5 µg/mL (≈ 23.6 µM)	100 µg/mL	100%	> 100 µg/mL	75%	100 µg/mL	0%	100%	50%	0%	0%	90%					MIC (Aspergillus niger (ANIG); [12]): 6 µg/mL; MIC [7, 13]: < 0.8 µg/mL
CC(C)(C)OC(=O)N[C@@H](COCc1ccccc1)C(=O)OCC#CI [Compound 3, N-t-butoxycarbonyl-O-benzyl-L-serine iodopropargyl ester]	0%		25 µg/mL (≈ 54.4 µM)	50 µg/mL (≈ 109 µM)	3.2 µg/mL (≈ 6.97 µM)		100%		100%		100%	100%	100%	100%	0%	100%	> 100 µg/mL	25 µg/mL	> 100 µg/mL	> 100 µg/mL	MIC (Aspergillus niger (ANIG); [14]): 3 µg/mL; MIC [7, 15]: < 0.8 µg/mL
C[C@@H](OCc1ccccc1)[C@H](N)C(=O)OCC#CI [Compound 11, O-benzyl-L-threonine iodopropargyl ester trifluoroacetate]	0%						100%		100%		100%	100%	95%	100%	0%	100%	> 100 µg/mL	> 100 µg/mL	> 100 µg/mL	> 100 µg/mL	MIC (THREE FUNGI; [16]): 25 µg/mL; MIC (THREE FUNGI; [17]): 50 µg/mL; MIC (THREE FUNGI; [18]): 12.5 µg/mL; MIC (Aspergillus niger (ANIG); [19]): 6.3 µg/mL; MIC [7, 20]: 3 µg/mL
C[C@H](N)C(=O)NCC(=O)OCC#CI [Compound 17, L-alanylglycine iodopropargyl ester trifluoroacetate]	75%	100 µg/mL				100 µg/mL	100%	100 µg/mL	100%	100 µg/mL	75%	100%	50%	100%	0%	100%					MIC (THREE FUNGI; [16]): 12.5 µg/mL; MIC (THREE FUNGI; [17]): 50 µg/mL; MIC (THREE FUNGI; [18]): 25 µg/mL; MIC (Aspergillus niger (ANIG); [21]): < 0.8 µg/mL; MIC [7, 22]: < 0.8 µg/mL
C[C@H](NC(=O)OC(C)(C)C)C(=O)OCC#CI [Compound 2, N-t-butoxycarbonyl-L-alanine iodopropargyl ester]	100%		3.2 µg/mL (≈ 9.06 µM)	25 µg/mL (≈ 70.8 µM)	1.6 µg/mL (≈ 4.53 µM)		100%		100%		100%	100%	100%	100%	0%	100%	> 100 µg/mL	50 µg/mL	> 100 µg/mL	50 µg/mL	MIC (Aspergillus niger (ANIG); [14]): 3 µg/mL; MIC [7, 15]: 3 µg/mL
C[C@H](NC(=O)OC(C)(C)C)C(=O)N[C@H](C(=O)OCC#CI)[C@@H](C)OCc1ccccc1 [Compound 16, N-t-butoxycarbonyl-L-alanyl-O-benzyl-L-threonine iodopropargyl ester]	0%	> 100 µg/mL	> 50 µg/mL	> 50 µg/mL	25 µg/mL (≈ 45.9 µM)	6 µg/mL	100%	> 100 µg/mL	0%	> 100 µg/mL	100%	0%	0%	100%	0%	100%					MIC (Aspergillus niger (ANIG); [12]): 13 µg/mL; MIC [7, 13]: < 0.8 µg/mL
N[C@@H](CSCc1ccccc1)C(=O)OCC#CI [Compound 10, S-benzyl-L-cysteine iodopropargyl ester trifluoroacetate]	0%						100%		100%		100%	100%	50%	100%	0%	100%	100 µg/mL	> 100 µg/mL	> 100 µg/mL	> 100 µg/mL	MIC (THREE FUNGI; [16]): 6.2 µg/mL; MIC (THREE FUNGI; [17]): 12.5 µg/mL; MIC (THREE FUNGI; [18]): 6.2 µg/mL; MIC (Aspergillus niger (ANIG); [19]): 3 µg/mL; MIC [7, 20]: 6.3 µg/mL
C[C@H](NC(=O)OC(C)(C)C)C(=O)N[C@@H](CSCc1ccccc1)C(=O)OCC#CI [Compound 15, N-t-butoxycarbonyl-L-alanyl-S-benzyl-L-cysteine iodopropargyl ester]	0%	> 100 µg/mL	> 50 µg/mL	> 50 µg/mL	50 µg/mL (≈ 91.5 µM)	> 100 µg/mL	100%	> 100 µg/mL	100%	> 100 µg/mL	100%	100%	0%	100%	0%	100%					MIC (Aspergillus niger (ANIG); [12]): 6 µg/mL; MIC [7, 13]: 1.6 µg/mL
C[C@H](N)C(=O)N[C@@H](CSCc1ccccc1)C(=O)OCC#CI [Compound 20, L-alanyl-S-benzyl-L-cysteine iodopropargyl ester trifluoroacetate]	0%	100 µg/mL				100 µg/mL	100%	100 µg/mL	100%	100 µg/mL	100%	100%	100%	100%	0%	100%					MIC (THREE FUNGI; [16]): 50 µg/mL; MIC (THREE FUNGI; [17]): 50 µg/mL; MIC (THREE FUNGI; [18]): 12.5 µg/mL; MIC (Aspergillus niger (ANIG); [21]): < 0.8 µg/mL; MIC [7, 22]: < 0.8 µg/mL
